From patent US8802673B2, “Heterocyclic amine derivatives” (Hoffmann-La Roche Inc, priority 2011, dated 2014) come the findings set out here.

SMILES strings stand for the structures.

Sequence of rat TAAR1 (Q923Y9 whole entry): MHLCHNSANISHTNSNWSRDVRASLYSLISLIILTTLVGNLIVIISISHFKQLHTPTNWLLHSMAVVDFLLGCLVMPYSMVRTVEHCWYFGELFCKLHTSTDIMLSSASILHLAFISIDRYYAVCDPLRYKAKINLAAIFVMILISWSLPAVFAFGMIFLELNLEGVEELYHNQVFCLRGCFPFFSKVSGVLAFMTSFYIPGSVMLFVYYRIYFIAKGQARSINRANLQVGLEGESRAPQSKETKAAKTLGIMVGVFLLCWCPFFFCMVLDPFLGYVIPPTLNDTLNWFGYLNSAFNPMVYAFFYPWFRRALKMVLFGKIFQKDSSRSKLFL

The target of one assay is mouse TAAR1 (Mus musculus (Mouse), UniProt Q923Y8). Description: Radioligand binding assay on mouse TAAR1. The following applies: mouse TAAR1 (first value of the cell), HEK-293 membranes; read-out: Ki (μM) mouse/rat. In short, it runs like this: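 Membranes from HEK293 cells stably expressing mouse TAAR1, Kd of radioligand determined per batch by saturation. Compounds tested 10 pM to 10 μM in duplicate, incubated 1 h at 4 °C, then filtration over PEI-soaked GF/C filters and scintillation counting.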
Sequence of mouse TAAR1 (Q923Y8 whole entry): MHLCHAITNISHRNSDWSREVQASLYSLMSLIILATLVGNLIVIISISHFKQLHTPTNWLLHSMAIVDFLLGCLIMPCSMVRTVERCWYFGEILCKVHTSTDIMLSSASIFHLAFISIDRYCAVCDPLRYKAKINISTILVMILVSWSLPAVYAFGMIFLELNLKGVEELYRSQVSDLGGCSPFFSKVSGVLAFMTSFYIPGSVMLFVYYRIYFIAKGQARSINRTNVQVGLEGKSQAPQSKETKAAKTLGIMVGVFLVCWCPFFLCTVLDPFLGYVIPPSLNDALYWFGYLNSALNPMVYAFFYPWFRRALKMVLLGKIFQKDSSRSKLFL
Take `CCc1cnc(Nc2ccc([C@H]3CNCCO3)cc2F)nc1` [Example 117, (5-Ethyl-pyrimidin-2-yl)-((S)-2-fluoro-4-morpholin-2-yl-phenyl)-amine]: the Ki stood at 0.0034 µM.

For the molecule `CC(C)Oc1cnc(Nc2ccc([C@H]3CNCCO3)cc2)nc1` [Example 122, (5-Isopropoxy-pyrimidin-2-yl)-((S)-4-morpholin-2-yl-phenyl)-amine], the Ki turned out to be 0.0079 µM.

For `CC(C)Oc1cnc(Nc2ccc([C@@H]3CNCCO3)cc2)nc1` [Example 123, (5-Isopropoxy-pyrimidin-2-yl)-((R)-4-morpholin-2-yl-phenyl)-amine], the Ki turned out to be 0.0174 µM.

For `c1cc([C@H]2CNCCO2)ccc1Nc1ncc(OCC2CC2)cn1` [Example 124, (S)-5-(Cyclopropylmethoxy)-N-(4-(morpholin-2-yl)phenyl)pyrimidin-2-amine], the Ki turned out to be 0.0036 µM.

With `c1cc([C@@H]2CNCCO2)ccc1Nc1ncc(OCC2CC2)cn1` [Example 125, (R)-5-(Cyclopropylmethoxy)-N-(4-(morpholin-2-yl)phenyl)pyrimidin-2-amine], the Ki came to 0.0045 µM.

With `CCCc1cnc(Nc2ccc([C@@H]3CNCCO3)cc2F)nc1` [Example 128, ((R)-2-Fluoro-4-morpholin-2-yl-phenyl)-(5-propyl-pyrimidin-2-yl)-amine], the Ki was 0.0049 µM.

For the molecule `CCCc1cnc(Nc2ccc([C@H]3CNCCO3)cc2F)nc1` [Example 129, ((S)-2-Fluoro-4-morpholin-2-yl-phenyl)-(5-propyl-pyrimidin-2-yl)-amine], the Ki amounted to 0.0043 µM.

On to `Fc1cc([C@@H]2CNCCO2)ccc1Nc1ncc(Cl)cn1` [Example 130, (5-Chloro-pyrimidin-2-yl)-((R)-2-fluoro-4-morpholin-2-yl-phenyl)-amine], for which the Ki came out at 0.0051 µM.

Turning to `Fc1cc([C@H]2CNCCO2)ccc1Nc1ncc(Cl)cn1` [Example 131, (5-Chloro-pyrimidin-2-yl)-((S)-2-fluoro-4-morpholin-2-yl-phenyl)-amine], the Ki stood at 0.0028 µM.

Turning to `CCOc1cnc(Nc2ccc([C@@H]3CNCCO3)cc2F)nc1` [Example 132, (5-Ethoxy-pyrimidin-2-yl)-((R)-2-fluoro-4-morpholin-2-yl-phenyl)-amine], the Ki was 0.0047 µM.

Take `CCOc1cnc(Nc2ccc([C@H]3CNCCO3)cc2F)nc1` [Example 133, (5-Ethoxy-pyrimidin-2-yl)-((S)-2-fluoro-4-morpholin-2-yl-phenyl)-amine]: the Ki turned out to be 0.0052 µM.

On to `Fc1cc([C@@H]2CNCCO2)ccc1Nc1ncc(C(F)(F)F)cn1` [Example 134, ((R)-2-Fluoro-4-morpholin-2-yl-phenyl)-(5-trifluoromethyl-pyrimidin-2-yl)-amine], for which the Ki came out at 0.0069 µM.

Consider `Fc1cc([C@H]2CNCCO2)ccc1Nc1ncc(C(F)(F)F)cn1` [Example 135, ((S)-2-Fluoro-4-morpholin-2-yl-phenyl)-(5-trifluoromethyl-pyrimidin-2-yl)-amine], for which the Ki was 0.0057 µM.

As for `FC(F)(F)COc1cnc(Nc2ccc([C@H]3CNCCO3)cc2)nc1` [Example 136, ((S)-4-Morpholin-2-yl-phenyl)-[5-(2,2,2-trifluoro-ethoxy)-pyrimidin-2-yl]-amine], the Ki stood at 0.0051 µM.

Consider `FC(F)(F)COc1cnc(Nc2ccc([C@@H]3CNCCO3)cc2)nc1` [Example 137, ((R)-4-Morpholin-2-yl-phenyl)-[5-(2,2,2-trifluoro-ethoxy)-pyrimidin-2-yl]-amine], for which the Ki is 0.0037 µM.

For the molecule `COCCOc1cnc(Nc2ccc([C@H]3CNCCO3)cc2)nc1` [Example 138], the Ki came to 0.0641 µM.

Regarding `COCCOc1cnc(Nc2ccc([C@@H]3CNCCO3)cc2)nc1` [Example 139], the Ki was 0.0667 µM.

As to `COc1ccc(-c2cnc(Nc3ccc([C@H]4CNCCO4)cc3)nc2)cc1OC` [Example 141], the Ki came out at 0.0027 µM.

Take `COc1ccc(-c2cnc(Nc3ccc([C@@H]4CNCCO4)cc3)nc2)cc1OC` [Example 142]: the Ki turned out to be 0.0027 µM.

The target of the next assay is rat TAAR1 (Rattus norvegicus (Rat), UniProt Q923Y9). The experiment in a line: Radioligand binding assay on rat TAAR1. The following applies: rat TAAR1 (second value of the cell), HEK-293 membranes; read-out: Ki (μM) mouse/rat. The gist of the method:
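Membranes from HEK293 cells stably expressing rat TAAR1 were used, with radioligand Kd determined by saturation for each batch. Compounds (10 pM to 10 μM, in duplicate) were incubated for 1 h at 4 °C. Bound radioactivity was collected by filtration onto PEI-soaked GF/C filters and counted by scintillation.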
Regarding `CCc1cnc(Nc2ccc([C@H]3CNCCO3)cc2F)nc1` [Example 117, (5-Ethyl-pyrimidin-2-yl)-((S)-2-fluoro-4-morpholin-2-yl-phenyl)-amine], the Ki worked out at 0.0104 µM.

`CC(C)Oc1cnc(Nc2ccc([C@H]3CNCCO3)cc2)nc1` [Example 122, (5-Isopropoxy-pyrimidin-2-yl)-((S)-4-morpholin-2-yl-phenyl)-amine]: the Ki was 0.0847 µM.

Take `CC(C)Oc1cnc(Nc2ccc([C@@H]3CNCCO3)cc2)nc1` [Example 123, (5-Isopropoxy-pyrimidin-2-yl)-((R)-4-morpholin-2-yl-phenyl)-amine]: the Ki worked out at 0.0796 µM.

Turning to `c1cc([C@H]2CNCCO2)ccc1Nc1ncc(OCC2CC2)cn1` [Example 124, (S)-5-(Cyclopropylmethoxy)-N-(4-(morpholin-2-yl)phenyl)pyrimidin-2-amine], the Ki was found to be 0.0348 µM.

For `c1cc([C@@H]2CNCCO2)ccc1Nc1ncc(OCC2CC2)cn1` [Example 125, (R)-5-(Cyclopropylmethoxy)-N-(4-(morpholin-2-yl)phenyl)pyrimidin-2-amine], the Ki was determined as 0.0278 µM.

With `CCCc1cnc(Nc2ccc([C@@H]3CNCCO3)cc2F)nc1` [Example 128, ((R)-2-Fluoro-4-morpholin-2-yl-phenyl)-(5-propyl-pyrimidin-2-yl)-amine], the Ki worked out at 0.0039 µM.

Regarding `CCCc1cnc(Nc2ccc([C@H]3CNCCO3)cc2F)nc1` [Example 129, ((S)-2-Fluoro-4-morpholin-2-yl-phenyl)-(5-propyl-pyrimidin-2-yl)-amine], the Ki was found to be 0.0068 µM.

In the case of `Fc1cc([C@@H]2CNCCO2)ccc1Nc1ncc(Cl)cn1` [Example 130, (5-Chloro-pyrimidin-2-yl)-((R)-2-fluoro-4-morpholin-2-yl-phenyl)-amine], the Ki was 0.0199 µM.

For `Fc1cc([C@H]2CNCCO2)ccc1Nc1ncc(Cl)cn1` [Example 131, (5-Chloro-pyrimidin-2-yl)-((S)-2-fluoro-4-morpholin-2-yl-phenyl)-amine], the Ki was determined as 0.0379 µM.

For `CCOc1cnc(Nc2ccc([C@@H]3CNCCO3)cc2F)nc1` [Example 132, (5-Ethoxy-pyrimidin-2-yl)-((R)-2-fluoro-4-morpholin-2-yl-phenyl)-amine], the Ki was found to be 0.0182 µM.

For `CCOc1cnc(Nc2ccc([C@H]3CNCCO3)cc2F)nc1` [Example 133, (5-Ethoxy-pyrimidin-2-yl)-((S)-2-fluoro-4-morpholin-2-yl-phenyl)-amine], the Ki was determined as 0.0387 µM.

As for `Fc1cc([C@@H]2CNCCO2)ccc1Nc1ncc(C(F)(F)F)cn1` [Example 134, ((R)-2-Fluoro-4-morpholin-2-yl-phenyl)-(5-trifluoromethyl-pyrimidin-2-yl)-amine], the Ki was found to be 0.0079 µM.

For the molecule `Fc1cc([C@H]2CNCCO2)ccc1Nc1ncc(C(F)(F)F)cn1` [Example 135, ((S)-2-Fluoro-4-morpholin-2-yl-phenyl)-(5-trifluoromethyl-pyrimidin-2-yl)-amine], the Ki was determined as 0.0198 µM.

Regarding `FC(F)(F)COc1cnc(Nc2ccc([C@H]3CNCCO3)cc2)nc1` [Example 136, ((S)-4-Morpholin-2-yl-phenyl)-[5-(2,2,2-trifluoro-ethoxy)-pyrimidin-2-yl]-amine], the Ki was determined as 0.0494 µM.

As for `FC(F)(F)COc1cnc(Nc2ccc([C@@H]3CNCCO3)cc2)nc1` [Example 137, ((R)-4-Morpholin-2-yl-phenyl)-[5-(2,2,2-trifluoro-ethoxy)-pyrimidin-2-yl]-amine], the Ki stood at 0.0026 µM.

Consider `COCCOc1cnc(Nc2ccc([C@H]3CNCCO3)cc2)nc1` [Example 138], for which the Ki was found to be 1.36 µM.

Regarding `COCCOc1cnc(Nc2ccc([C@@H]3CNCCO3)cc2)nc1` [Example 139], the Ki is 1.06 µM.

As to `COc1ccc(-c2cnc(Nc3ccc([C@H]4CNCCO4)cc3)nc2)cc1OC` [Example 141], the Ki is 0.0129 µM.

As for `COc1ccc(-c2cnc(Nc3ccc([C@@H]4CNCCO4)cc3)nc2)cc1OC` [Example 142], the Ki stood at 0.0146 µM.
